Measured values: the Kinase Knowledgebase extract (Sharma et al. 2016)
pEC50, pIC50: −log10 of the molar value.

What was measured:
PIK3CA (human) [1] = target: PIK3CA (human) (UniProt P42336); assay: Inhibition of PIK3CA Kinase Activity
PIK3CA (human) [2] = target: PIK3CA (human) (UniProt P42336); assay: Inhibition of A2780 Cell Proliferation

Chain of PIK3CA (human) (P42336 whole entry, looked up): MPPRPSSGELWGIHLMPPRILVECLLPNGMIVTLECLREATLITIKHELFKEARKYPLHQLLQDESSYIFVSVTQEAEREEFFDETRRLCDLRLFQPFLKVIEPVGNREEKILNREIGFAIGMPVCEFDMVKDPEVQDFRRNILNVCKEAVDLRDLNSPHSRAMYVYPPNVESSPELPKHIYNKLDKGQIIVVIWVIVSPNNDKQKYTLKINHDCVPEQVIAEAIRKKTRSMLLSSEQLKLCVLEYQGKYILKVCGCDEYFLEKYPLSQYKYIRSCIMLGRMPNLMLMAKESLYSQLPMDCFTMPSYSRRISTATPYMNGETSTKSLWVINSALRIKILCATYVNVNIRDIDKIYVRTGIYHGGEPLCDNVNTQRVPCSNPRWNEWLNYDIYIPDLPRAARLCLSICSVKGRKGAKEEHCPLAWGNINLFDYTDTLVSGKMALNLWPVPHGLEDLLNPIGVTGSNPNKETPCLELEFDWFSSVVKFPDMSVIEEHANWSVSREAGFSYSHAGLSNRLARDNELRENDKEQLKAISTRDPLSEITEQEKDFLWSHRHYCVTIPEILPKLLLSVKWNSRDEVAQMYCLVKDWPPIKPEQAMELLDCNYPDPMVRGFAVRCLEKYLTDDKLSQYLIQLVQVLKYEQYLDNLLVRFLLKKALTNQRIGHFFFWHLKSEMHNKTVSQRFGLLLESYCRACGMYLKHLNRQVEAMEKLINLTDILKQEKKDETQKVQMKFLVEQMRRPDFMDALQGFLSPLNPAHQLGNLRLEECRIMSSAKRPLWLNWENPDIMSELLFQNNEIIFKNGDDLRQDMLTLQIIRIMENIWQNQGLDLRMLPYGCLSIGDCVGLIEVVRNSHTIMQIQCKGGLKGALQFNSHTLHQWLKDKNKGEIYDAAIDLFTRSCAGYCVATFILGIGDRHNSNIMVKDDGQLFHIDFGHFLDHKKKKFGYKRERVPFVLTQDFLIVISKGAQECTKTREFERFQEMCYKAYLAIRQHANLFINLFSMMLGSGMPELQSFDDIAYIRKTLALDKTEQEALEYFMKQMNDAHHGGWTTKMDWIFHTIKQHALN

SMILES | pIC50 (PIK3CA (human) [1]) | pEC50 (PIK3CA (human) [2])
CCN(CC)Cc1cc(-c2ccc3nc(NC(C)=O)cn3n2)cnc1N | > 6.00 | > 5.00
CC(=O)Nc1nc2ccc(-c3cnc(N)c(CN(C)C)c3)cc2s1 | > 6.00 | > 5.00
CC(=O)Nc1cn2c(C)c(-c3cnc(N)c(C(F)(F)F)c3)ccc2n1 | > 6.00 | > 5.00
CCC(=O)Nc1cn2cc(-c3cnc(N)c(OC)n3)ccc2n1 | > 6.00 | > 5.00
COC(=O)CCCC(=O)Nc1cn2nc(-c3cnc(N)c(C(F)(F)F)c3)ccc2n1 | > 6.00 | > 5.00
CC(C)(C)OC(=O)N1CC[C@H]1C(=O)Nc1cn2cc(-c3cnc(N)c(C(F)(F)F)c3)ccc2n1 | > 6.00 | > 4.60
CC(=O)Nc1nc2ccc(-c3cnc(N)c(C(F)(F)F)c3)cn2c1C#Cc1ccc(C)cc1 | > 6.00 | > 5.00
Nc1ncc(-c2ccc3nc(NC(=O)c4ccc(F)nc4)cn3c2)cc1C(F)(F)F | > 6.00 | > 4.60
CC(=O)Nc1nc2ccc(-c3cnc(N)c(C(F)(F)F)c3)cn2c1C#CCNC(=O)OC(C)(C)C | > 6.00 | > 5.00
CNCC(=O)Nc1cn2cc(-c3cnc(N)c(OCCOC)n3)ccc2n1 | > 6.00 | > 5.00
CC(=O)Nc1cn2nc(-c3cnc(N)c(-c4ccccc4F)c3)ccc2n1 | > 6.00 | > 6.00
CC(=O)Nc1nc2cc(F)c(-c3cnc(N)c(C(F)(F)F)c3)cc2s1 | > 6.00 | > 4.60
CC(=O)Nc1nc2ccc(-c3cnc(N)c(C(F)(F)F)c3)cn2c1C#Cc1ccncc1 | > 6.00 | > 6.00
CC(=O)Nc1cn2cc(-c3cnc(N)c(-c4ccccc4N4CCOCC4)c3)ccc2n1 | > 6.00 | > 6.00
CN(CC(=O)Nc1cn2cc(-c3cnc(N)c(C(F)(F)F)c3)ccc2n1)C(=O)OC(C)(C)C | > 6.00 | > 5.00
Nc1ncc(-c2ccc3nc(NC(=O)CCO)cn3c2)cc1C(F)(F)F | > 6.00 | > 5.00
CC(=O)Nc1nc2ccc(-c3cnc(N)c(C(F)(F)F)c3)cn2c1C#N | > 6.00 | > 6.00
CC(=O)NC1CCN(C(=O)Nc2cn3cc(-c4cnc(N)c(C(F)(F)F)c4)ccc3n2)C1 (centres undefined) | > 6.00 | > 4.60
COc1ccccc1-c1cc(-c2ccc3nc(NC(C)=O)cn3n2)cnc1N | > 6.00 | > 5.00
CC(=O)Nc1cn2cc(-c3cnc(N)c(-c4ccc(F)cc4)c3)ccc2n1 | > 6.00 | > 4.60
COc1nc(-c2ccc3nc(NC(C)=O)cn3n2)cnc1N | > 6.00 | > 5.00

SMILES | pIC50 (PIK3CA (human) [1]) | pEC50 (PIK3CA (human) [2])
COC[C@@H]1CCCN1C(=O)Nc1cn2cc(-c3cnc(N)c(C(F)(F)F)c3)ccc2n1 | > 6.00 | > 4.60
CC(=O)Nc1cn2cc(-c3cnc(N)c(N4CCOCC4)n3)ccc2n1 | > 6.00 | > 5.00
CC(=O)Nc1cn2nc(-c3cnc(N)c(Cl)c3)ccc2n1 | > 6.00 | > 6.00
CC(=O)Nc1cn2nc(-c3cnc(N)c(C(=O)O)c3)ccc2n1 | > 6.00 | > 4.60
CC(=O)Nc1cn2cc(-c3cnc(N)c(C(F)(F)F)c3)c(F)cc2n1 | > 6.00 | > 4.60
CC(=O)Nc1nc2ccc(-c3cnc(N)c(C(F)(F)F)c3)cn2c1C#CCN1CCOCC1 | > 6.00 | > 5.00
CNCC(=O)Nc1cn2cc(-c3cnc(N)c(C(F)(F)F)c3)ccc2n1 | > 6.00 | > 6.00
NC(=O)N1CC[C@H]1C(=O)Nc1cn2cc(-c3cnc(N)c(C(F)(F)F)c3)ccc2n1 | > 6.00 | > 4.60
CC(=O)Nc1cn2cc(-c3ccc(N)nc3C)ccc2n1 | > 6.00 | > 4.60
CC(C)(C)OC(=O)N1CC(C(=O)Nc2cn3nc(-c4cnc(N)c(C(F)(F)F)c4)ccc3n2)C1 | > 6.00 | > 5.00
CC(=O)Nc1cn2cc(-c3cnc(N)c(Oc4cccc(F)c4)n3)ccc2n1 | > 6.00 | > 6.00
CC(=O)Nc1nc2ccc(-c3cnc(N)c(C(F)(F)F)c3)cn2c1C#Cc1cccnc1 | > 6.00 | > 6.00
CCOC(=O)CC(=O)Nc1cn2cc(-c3cnc(N)c(C(F)(F)F)c3)ccc2n1 | > 6.00 | > 5.00
Nc1ncc(-c2ccc3nc(NC(=O)N4CC[C@H](O)C4)cn3c2)cc1C(F)(F)F | > 6.00 | > 5.00
Nc1ncc(-c2ccc3nc(NC(=O)CCCC(=O)O)cn3n2)cc1C(F)(F)F | > 6.00 | > 4.60
C[C@@H](N)C(=O)Nc1cn2nc(-c3cnc(N)c(C(F)(F)F)c3)ccc2n1 | > 6.00 | > 5.00
CC(=O)Nc1cn2nc(-c3cnc(N)c(-c4ccccc4Oc4ccccc4)c3)ccc2n1 | > 6.00 | > 5.00
Nc1ncc(-c2ccc3nc(NC(=O)CCCN4CCCCC4)cn3n2)cc1C(F)(F)F | > 6.00 | > 6.00
CC(C)(C)OC(=O)N1CCC[C@H]1C(=O)Nc1cn2nc(-c3cnc(N)c(C(F)(F)F)c3)ccc2n1 | > 6.00 | > 4.60
CC(C)(C)OC(=O)N1CCC(OCC(=O)Nc2cn3cc(-c4cnc(N)c(C(F)(F)F)c4)ccc3n2)CC1 | > 6.00 | > 5.00
Nc1ncc(-c2ccc3nc(NC(=O)[C@@H]4CCN4)cn3c2)cc1C(F)(F)F | > 6.00 | > 5.00

SMILES | pIC50 (PIK3CA (human) [1]) | pEC50 (PIK3CA (human) [2])
CCCNc1ccc(-c2ccc3nc(NC(C)=O)sc3c2)cn1 | > 6.00 | > 4.60
Nc1ncc(-c2ccc3nc(NC(=O)C(F)(F)F)cn3c2)cn1 | > 6.00 | > 4.60
CC(=O)Nc1cn2nc(-c3cnc(N)c(OC(F)F)c3)ccc2n1 | > 6.00 | > 6.00
NCCCC(=O)Nc1cn2nc(-c3cnc(N)c(C(F)(F)F)c3)ccc2n1 | > 6.00 | > 4.60
Cc1ccc(C2CCCN2C(=O)Nc2cn3cc(-c4cnc(N)c(C(F)(F)F)c4)ccc3n2)s1 (centres undefined) | > 6.00 | > 4.60
COCCOc1nc(-c2ccc3nc(NC(=O)C4CCN4)cn3c2)cnc1N (centres undefined) | > 6.00 | > 4.60
CC(=O)Nc1cn2cc(-c3cnc(N)c(F)c3)ccc2n1 | > 6.00 | > 4.60
CC(=O)Nc1cn2nc(-c3cnc(N)cc3C(F)(F)F)ccc2n1 | > 6.00 | > 4.60
Nc1ncc(-c2ccc3nc(NC(=O)CCC4CCCCN4)cn3n2)cc1C(F)(F)F (centres undefined) | > 6.00 | > 6.00
CC(=O)Nc1cn2nc(-c3cnc(N)c(C(=O)NCCNC(=O)OC(C)(C)C)c3)ccc2n1 | > 6.00 | > 6.00
CCN(CC)C(=O)c1cc(-c2ccc3nc(NC(C)=O)cn3c2)cnc1N | > 6.00 | > 5.00
CC(=O)Nc1nc2ccc(-c3cnc(N)c(C(F)(F)F)c3)cn2c1-c1ccc(C(N)=O)cc1 | > 6.00 | > 4.60
C[C@@H](NC(=O)OC(C)(C)C)C(=O)Nc1cn2nc(-c3cnc(N)c(C(F)(F)F)c3)ccc2n1 | > 6.00 | > 5.00
CC(=O)Nc1cn2nc(-c3cnc(N)c(C(=O)NCCNS(C)(=O)=O)c3)ccc2n1 | > 6.00 | > 4.60
CC(=O)Nc1cn2cc(-c3cnc(N)c(-c4ccccc4)c3)ccc2n1 | > 6.00 | > 5.00
Nc1ncc(-c2ccc3nc(NC(=O)CCCN4CCOCC4)cn3c2)cc1C(F)(F)F | > 6.00 | > 5.00
Nc1ncc(-c2ccc3nc(NC(=O)c4ccccn4)cn3c2)cc1C(F)(F)F | > 6.00 | > 4.60
CC(=O)Nc1cn2cc(-c3cnc(N)c(C(=O)NCCNS(C)(=O)=O)n3)ccc2n1 | > 6.00 | > 4.60
CC(=O)Nc1cn2cc(-c3cnc(N)c(C=O)c3)ccc2n1 | > 6.00 | > 5.00
Nc1ccc(C(=O)Nc2nc3ccc(-c4cnc(N)c(C(F)(F)F)c4)cc3s2)cn1 | > 6.00 | > 6.00
CC(=O)Nc1cn2cc(-c3cnc(N)c(OC4CCC4)n3)ccc2n1 | > 6.00 | > 6.00

SMILES | pIC50 (PIK3CA (human) [1]) | pEC50 (PIK3CA (human) [2])
CC(=O)Nc1cn2nc(-c3cnc(N)c(C(=O)NCCO)c3)ccc2n1 | > 6.00 | > 4.60
CC(=O)Nc1nc2ccc(-c3cnc(N)cc3C)cc2s1 | > 6.00 | > 4.60
CC(=O)Nc1nc2ccc(-c3cnc(N)c(C(F)(F)F)c3)c(F)c2s1 | > 6.00 | > 5.00
Nc1ncc(-c2ccc3nc(NC(=O)C4CNC4)cn3n2)cc1Cl | > 6.00 | > 4.60
CC(=O)Nc1cn2nc(-c3cnc(N)c(-c4ccccc4OC(F)(F)F)c3)ccc2n1 | > 6.00 | > 6.00
Nc1ncc(-c2ccc3nc(NC(=O)CN4CCCCC4)cn3c2)cc1C(F)(F)F | > 6.00 | > 5.00
CC(=O)Nc1cn2cc(-c3cnc(N)c(-c4ccccc4C(F)(F)F)c3)ccc2n1 | > 6.00 | > 5.00
Nc1ncc(-c2ccc3nc(NC(=O)C4CCN4)cn3n2)cc1C(F)(F)F (centres undefined) | > 6.00 | > 5.00
Nc1ncc(-c2ccc3nc(NC(=O)Cc4cccc5ccccc45)cn3c2)cc1C(F)(F)F | > 6.00 | > 6.00
COc1cc(-c2ccc3nc(NC(C)=O)cn3c2C)cnc1N | > 6.00 | > 4.60
CC(=O)Nc1nc2ccc(-c3cnc(N)c(C(F)(F)F)c3)cn2c1C#Cc1ccccc1 | > 6.00 | > 5.00
CC(=O)Nc1nc2cc(C)c(-c3cnc(N)c(C(F)(F)F)c3)cc2s1 | > 6.00 | > 4.60
CCN1CCN(CCCC(=O)Nc2cn3cc(-c4cnc(N)c(C(F)(F)F)c4)ccc3n2)CC1 | > 6.00 | > 5.00
COCCOc1nc(-c2ccc3nc(NC(=O)C4CCN4C(C)=O)cn3c2)cnc1N (centres undefined) | > 6.00 | > 5.00
CNCC(=O)Nc1cn2nc(-c3cnc(N)c(C(F)(F)F)c3)ccc2n1 | > 6.00 | > 6.00
Nc1ncc(-c2ccc3nc(NC(=O)CCCO)cn3c2)cc1C(F)(F)F | > 6.00 | > 5.00
CCN1CCC(OCC(=O)Nc2cn3cc(-c4cnc(N)c(C(F)(F)F)c4)ccc3n2)CC1 | > 6.00 | > 5.00
CCN1CCCCC1CCC(=O)Nc1cn2nc(-c3cnc(N)c(C(F)(F)F)c3)ccc2n1 (centres undefined) | > 6.00 | > 6.00
Nc1ncc(-c2ccc3nc(NC(=O)N4CCCC4c4ccccn4)cn3c2)cc1C(F)(F)F (centres undefined) | > 6.00 | > 4.60
